Measurements as given in US8680052B1, “Methods of treating, reducing the incidence of, and/or preventing ischemic events” (The Medicines Company, priority 2013, dated 2014).
Read-outs that look alike come from different tables or passages of the source.

System: patients with acute coronary syndromes undergoing PCI
Settings: for All-cause mortality OR (95% CI) / IDR OR (95% CI) / MI OR (95% CI) / Mortality/MI/IDR OR (95% CI) / Mortality/Q-wave MI/IDR OR (95% CI) / Mortality/Q-wave MI/Stent thrombosis OR (95% CI) / Q-wave MI OR (95% CI) / Stent thrombosis OR (95% CI): Cangrelor vs Clopidogrel; for Angiographic complications (site reported): Abrupt vessel closure / Angiographic complications (site reported): Acute stent thrombosis / Angiographic complications (site reported): Need for urgent CABG / Angiographic complications (site reported): New thrombus or suspected thrombus / Angiographic complications (site reported): Threatened abrupt closure / Angiographic complications (site reported): Unsuccessful procedure: index PCI
Experimental: Patients were eligible for enrollment if they had stable angina, unstable angina, or non-ST-segment elevation (NSTE) MI with obstructive coronary artery disease and were scheduled to undergo PCI.
The infusion began within 30 minutes prior to PCI and continued for at least 2 hours or until the conclusion of the index procedure, whichever was longer. At the treating physician's discretion, the infusion could be continued for 4 hours.
All patients received aspirin 75-325 mg per local site standards. Adjunctive anticoagulants (unfractionated heparin, low molecular weight heparin, bivalirudin, or fondaparinux) and the procedural use of glycoprotein IIb/IIIa inhibitors were determined by the treating physician.
The primary efficacy endpoint was the 48-hour composite of all-cause mortality, MI, or ischemia-driven revascularization. Prespecified secondary efficacy endpoints included the composite of mortality or MI at 48 hours and 30 days; the composite of mortality, MI, or ischemia-driven revascularization at 30 days; the components of the composite endpoints at 48 hours and 30 days; stroke at 48 hours; abrupt closure, threatened abrupt closure, need for urgent coronary artery bypass grafting, or unsuccessful procedure during the index PCI; acute (24 hours) and 48 hours stent thrombosis; and all-cause mortality at 6 months and 1 year.
Rates of MI and ischemia-driven revascularization up to 30 days following the index procedure were assessed. Ischemia-driven revascularization was defined as symptoms of myocardial ischemia leading to urgent (within 24 hours of the last episode of ischemia) revascularization, which must have occurred after the index procedure concluded (i.e., guidewire removal). New electrocardiographic changes, acute pulmonary edema, ventricular arrhythmias, or hemodynamic instability could also constitute evidence of ischemia.
MI was defined by a new Q wave (duration >0.03 seconds) in two contiguous electrocardiographic leads or elevations in creatine kinase (CK) and CK-MB, including a rise of CK-MB≧3 times the local upper limit or normal and, when biomarkers were elevated prior to PCI, an additional 50% above baseline. One baseline troponin measurement was required for patients undergoing urgent PCI. Measurements of CK-MB were obtained at 2, 10, 17, and 24 hours post-PCI.
The primary efficacy analysis was to be determined in the modified intent-to-treat (mITT) population, defined as all randomized patients (excluding STEMI cohort) who received at least one dose of study drug and underwent the index PCI. The safety population consisted of all randomized patients who received any study drug. Patients in the safety analyses were assigned to a treatment arm based on treatment received, not as randomized.

## CSCCNc1nc(SCCC(F)(F)F)nc2c1ncn2[C@@H]1O[C@H](COP(=O)(O)OP(=O)(O)C(Cl)(Cl)P(=O)(O)O)[C@@H](O)[C@H]1O [Cangrelor, cangrelor]
30 days, MITT Without STEMI
  Q-wave MI: 7 (0.2) no. (%)
  Stent thrombosis: 20 (0.5) no. (%)
  All-cause mortality OR (95% CI): 1.177 (0.704, 1.967)
  IDR OR (95% CI): 0.837 (0.559, 1.254)
  MI OR (95% CI): 1.072 (0.905, 1.272)
  Mortality/MI/IDR OR (95% CI): 1.044 (0.891, 1.224)
  Mortality/Q-wave MI/IDR OR (95% CI): 0.930 (0.679, 1.273)
  Mortality/Q-wave MI/Stent thrombosis OR (95% CI): 1.030 (0.702, 1.511)
  Q-wave MI OR (95% CI): 0.462 (0.188, 1.134)
  Stent thrombosis OR (95% CI): 0.991 (0.533, 1.846)
30 days, MITT
  All-cause mortality OR (95% CI): 1.046 (0.670, 1.635)
  IDR OR (95% CI): 0.902 (0.634, 1.283)
  MI OR (95% CI): 1.078 (0.914, 1.271)
  Mortality/MI/IDR OR (95% CI): 1.042 (0.895, 1.211)
  Mortality/Q-wave MI/IDR OR (95% CI): 0.927 (0.703, 1.222)
  Mortality/Q-wave MI/Stent thrombosis OR (95% CI): 0.924 (0.663, 1.290)
  Q-wave MI OR (95% CI): 0.595 (0.260, 1.362)
  Stent thrombosis OR (95% CI): 0.894 (0.530, 1.506)
30 days, Safety population
  All-cause mortality: 40 (0.9) no. (%)
  IDR: 60 (1.4) no. (%)
  MI: 318 (7.4) no. (%)
  Mortality/MI/IDR: 379 (8.8) no. (%)
  Mortality/Q-wave MI/IDR: 100 (2.3) no. (%)
  Mortality/Q-wave MI/Stent thrombosis: 68 (1.6) no. (%)
  Q-wave MI: 9 (0.2) no. (%)
  Stent thrombosis: 27 (0.6) no. (%)
  All-cause mortality OR (95% CI): 0.974 (0.629, 1.508)
  IDR OR (95% CI): 0.893 (0.628, 1.268)
  MI OR (95% CI): 1.090 (0.925, 1.285)
  Mortality/MI/IDR OR (95% CI): 1.040 (0.895, 1.209)
  Mortality/Q-wave MI/IDR OR (95% CI): 0.897 (0.682, 1.179)
  Mortality/Q-wave MI/Stent thrombosis OR (95% CI): 0.892 (0.641, 1.240)
  Q-wave MI OR (95% CI): 0.598 (0.262, 1.368)
  Stent thrombosis OR (95% CI): 0.898 (0.533, 1.513)
ITT
  Angiographic complications (site reported): Abrupt vessel closure: 24 (0.6)
  Angiographic complications (site reported): Acute stent thrombosis: 2 (0.0)
  Angiographic complications (site reported): Need for urgent CABG: 10 (0.2)
  Angiographic complications (site reported): New thrombus or suspected thrombus: 17 (0.4)
  Angiographic complications (site reported): Threatened abrupt closure: 13 (0.3)
  Angiographic complications (site reported): Unsuccessful procedure: 90 (2.1)
ITT With STEMI
  Angiographic complications (site reported): Abrupt vessel closure: 4 (0.9)
  Angiographic complications (site reported): Acute stent thrombosis: 0 (0.0)
  Angiographic complications (site reported): Need for urgent CABG: 2 (0.4)
  Angiographic complications (site reported): New thrombus or suspected thrombus: 1 (0.2)
  Angiographic complications (site reported): Threatened abrupt closure: 4 (0.9)
  Angiographic complications (site reported): Unsuccessful procedure: 9 (2.0)
ITT Without STEMI
  Angiographic complications (site reported): Abrupt vessel closure: 20 (0.5)
  Angiographic complications (site reported): Acute stent thrombosis: 2 (0.1)
  Angiographic complications (site reported): Need for urgent CABG: 8 (0.2)
  Angiographic complications (site reported): New thrombus or suspected thrombus: 16 (0.4)
  Angiographic complications (site reported): Threatened abrupt closure: 9 (0.2)
  Angiographic complications (site reported): Unsuccessful procedure: 81 (2.1)
MITT
  Angiographic complications (site reported): Abrupt vessel closure: 24 (0.6)
  Angiographic complications (site reported): Acute stent thrombosis: 2 (0.0)
  Angiographic complications (site reported): Need for urgent CABG: 8 (0.2)
  Angiographic complications (site reported): New thrombus or suspected thrombus: 17 (0.4)
  Angiographic complications (site reported): Threatened abrupt closure: 13 (0.3)
  Angiographic complications (site reported): Unsuccessful procedure: 90 (2.1)
MITT NSTEMI
  Angiographic complications (site reported): Abrupt vessel closure: 20 (0.5)
  Angiographic complications (site reported): Acute stent thrombosis: 2 (0.1)
  Angiographic complications (site reported): Need for urgent CABG: 7 (0.2)
  Angiographic complications (site reported): New thrombus or suspected thrombus: 16 (0.4)
  Angiographic complications (site reported): Threatened abrupt closure: 9 (0.2)
  Angiographic complications (site reported): Unsuccessful procedure: 81 (2.1)
Safety population
  Angiographic complications (site reported): Abrupt vessel closure: 24 (0.6)
  Angiographic complications (site reported): Acute stent thrombosis: 2 (0.0)
  Angiographic complications (site reported): Need for urgent CABG: 8 (0.2)
  Angiographic complications (site reported): New thrombus or suspected thrombus: 17 (0.4)
  Angiographic complications (site reported): Threatened abrupt closure: 13 (0.3)
  Angiographic complications (site reported): Unsuccessful procedure: 90 (2.1)
